Where “and” joins values, the source holds several entries; their conditions need not be identical. Identical values can stand only once. Like-named read-outs stand apart in the source and are kept apart here.
Key:
[1] = tested on: human airway smooth muscle cells; details: 10 μM; bradykinin 1 μM; cited from earlier work
[2] = tested on: guinea pig airway smooth muscle; details: 1 μM substance P; p < 0.01; cited from earlier work
α1β3γ2 GABAA receptor = details: cited from earlier work; for Efficacy α1 as % of control current: baseline 100
α6β2γ2 GABAA receptor = biological target: T1, α6β2γ2 GABAA receptor (Homo sapiens, UniProt P18507+Q16445); test: Radioligand binding (McKernan and Atack), α6β2γ2; details: Table 3; αxβ2γ2; means of two determinations; read-out: Binding affinity α6
T1 construct: expressed in transfected cells; host or cells: HEK cells
Procedure: (§1) Transfected HEK cells (beta2 gamma2 and desired alpha subtype) were harvested into phosphate-buffered saline, centrifuged at 3,000 g, and stored at −70°C until required. On the day of the assay, pellets were thawed and resuspended in sufficient volume of 50 mM Tris/acetate (pH 7.4 at 4°C) to give a total binding of approximately 1500–2000 dpm. […] Total assay volume was 0.5 mL and assays were carried out in 96-well plates and incubation time started by the addition of 0.1 mL of resuspended cell membranes. Following incubation for 1 hour at 4°C, assays were terminated by filtration through GF/B filters, washed with 10 mL ice cold buffer, dried, and then counted using a liquid scintillation counter. […] We have previously reported the synthesis of the following.

rodents = details: one study in rodents; cited from earlier work
[3] = tested on: dopamine neurons in the VTA; details: cited from earlier work
primates = details: cited from earlier work
α5β3γ2 GABAA receptor = biological target: T2, α5β3γ2 GABAA receptor (Homo sapiens, UniProt P18507+P31644); details: cited from earlier work; for Efficacy α5 as % of control current: baseline 100
T2 construct: expressed in transfected cells; host or cells: Xenopus oocytes

α3β3γ2 GABAA receptor = details: cited from earlier work; for Efficacy α3 as % of control current: baseline 100
[4] = tested on: human airway smooth muscle cells; details: whole cell patch clamp; cited from earlier work
ventral HPC neurons = details: 0.1 mg/kg, i.v.; MAM- and saline-treated animals; cited from earlier work
MAM rats = details: cited from earlier work
α4β2γ2 GABAA receptor = biological target: T3, α4β2γ2 GABAA receptor (Homo sapiens, UniProt P18507+P48169); test: Radioligand binding (McKernan and Atack), α4β2γ2; details: Table 3; αxβ2γ2; means of two determinations; read-out: Binding affinity α4
T3 construct: expressed in transfected cells; host or cells: HEK cells
Procedure: as §1

[5] = tested on: human airway smooth muscle; details: 50 μM; p < 0.01; cited from earlier work
α2β3γ2 GABAA receptor = details: cited from earlier work; for Efficacy α2 as % of control current: baseline 100
mice = details: mice; ref Harris, DeLorey et al.; cited from earlier work
α2β3γ2 GABAA/BzR [6] = biological target: T4, α2β3γ2 GABAA/BzR (Homo sapiens, UniProt P18507+P47869); set-up: expressed in transfected cells; host or cells: LTK cells (given for XLi-093 only); details: Figure 4, read-out: Ki α2, cited from earlier work
rats = details: cited from earlier work
α5β3γ2 GABAA/BzR = α5β3γ2 GABAA/BzR (Homo sapiens, UniProt P18507+P31644); test: Competition binding to HEK cell membranes, α5β3γ2; set-up: expressed in transfected cells; details: Affinity Ki α5
α3β3γ2 GABAA/BzR [7] = biological target: T5, α3β3γ2 GABAA/BzR (Homo sapiens, UniProt P18507+P34903); set-up: expressed in transfected cells; host or cells: LTK cells (given for XLi-093 only); details: Figure 4, read-out: Ki α3, cited from earlier work
α6β3γ2 GABAA/BzR [8] = biological target: T6, α6β3γ2 GABAA/BzR (Homo sapiens, UniProt P18507+Q16445); test: Competition binding to HEK cell membranes, α6β3γ2; set-up: expressed in transfected cells; details: Affinity Ki α6
AD rat model = test: Spatial water maze task in AD rat model; format: in vivo; details: relative to vehicle, p < 0.05
From the text: It is well known many Down syndrome patients develop Alzheimer's disease or a dementia with a very similar etiology.

α1β3γ2 GABAA/BzR [9] = biological target: T7, α1β3γ2 GABAA/BzR (Homo sapiens, UniProt P14867+P18507); test: Competition binding to HEK cell membranes, α1β3γ2; set-up: expressed in transfected cells; details: Table 2; data from three separate laboratories; read-out: Affinity Ki α1
α2β3γ2 GABAA/BzR [10] = biological target: T4, α2β3γ2 GABAA/BzR; test: Competition binding to HEK cell membranes, α2β3γ2; set-up: expressed in transfected cells; details: Table 2; data from three separate laboratories; read-out: Affinity Ki α2
rhesus monkeys = details: cited from earlier work
α1β3γ2 GABAA/BzR [11] = biological target: T7, α1β3γ2 GABAA/BzR; set-up: expressed in transfected cells; host or cells: LTK cells (given for XLi-093 only); details: Figure 4, read-out: Ki α1, cited from earlier work
α6β3γ2 GABAA/BzR [12] = biological target: T6, α6β3γ2 GABAA/BzR; set-up: expressed in transfected cells; host or cells: LTK cells (given for XLi-093 only); details: read-out: Ki α6; cited from earlier work
α3β3γ2 GABAA/BzR [13] = biological target: T5, α3β3γ2 GABAA/BzR; test: Competition binding to HEK cell membranes, α3β3γ2; set-up: expressed in transfected cells; details: Table 2; data from three separate laboratories; read-out: Affinity Ki α3

## C#Cc1ccc2c(c1)C(c1ccccc1F)=N[C@H](C)c1c(C(=O)OCC)ncn1-2 [SH-053-2′F-R-CH3, (2)]
[1]
  bradykinin-induced increase in intracellular calcium: attenuated
[2]
  remaining contractile force 30 minutes after a substance P-induced contraction: significantly reduced
α1β3γ2 GABAA receptor; 100 nM
  Efficacy α1 as % of control current: 111 % of control current
α1β3γ2 GABAA receptor; 1 μM
  Efficacy α1 as % of control current: 154 % of control current
α6β2γ2 GABAA receptor
  Ki: > 5000 nM
rodents
  locomotion: decrease in locomotion
[3]; 0.1 mg/kg, i.v.
  dopamine neuron activity in control animals: no effect
  firing rate and burst activity in MAM animals: no effect
  number of spontaneously firing dopamine neurons (cells/track), MAM animals: normalizes the aberrant increase
[3]
  dopamine activity and locomotor response in MAM rats withdrawn from HAL: unresponsive
[3]; hippocampal infusion 1 μM/side
  number of spontaneously firing dopamine neurons (cells/track), MAM animals: normalizes the aberrant increase
  percentage of spikes occurring in bursts, MAM and control animals: significantly reduced
[3]; rat, in vivo
  cells/track in repeatedly haloperidol-treated SAL rats: reversed the haloperidol-induced reduction
  firing rate of dopamine neurons in repeatedly haloperidol-treated SAL rats: increase
  percentage of spikes occurring in bursts, haloperidol-treated SAL and MAM rats: no impact
primates
  anxiolytic effect: very weak anxiolytic effect
α5β3γ2 GABAA receptor; 100 nM
  Efficacy α5 as % of control current: 183 % of control current
α5β3γ2 GABAA receptor; 1 μM
  Efficacy α5 as % of control current: 387 % of control current
α3β3γ2 GABAA receptor; 100 nM
  Efficacy α3 as % of control current: 125 % of control current
α3β3γ2 GABAA receptor; 1 μM
  Efficacy α3 as % of control current: 220 % of control current
[4]
  plasma membrane chloride current: induced a Cl^− current
Ventral HPC neurons
  evoked excitatory response of ventral HPC neurons: decreases
MAM rats; 10 mg/kg, i.p.
  locomotor response to D-amphetamine (0.5 mg/kg i.p.), MAM rats: reduced
MAM rats; rat, in vivo
  locomotor response to D-amphetamine in repeatedly haloperidol-treated SAL animals: reduced
  peak locomotor response in repeatedly haloperidol-treated MAM rats: no effect
α4β2γ2 GABAA receptor
  Ki: > 5000 nM
[5]
  isoproterenol (10 nM) mediated relaxation of an acetylcholine EC50 contraction: significantly enhances
α2β3γ2 GABAA receptor; 100 nM
  Efficacy α2 as % of control current: 124 % of control current
α2β3γ2 GABAA receptor; 1 μM
  Efficacy α2 as % of control current: 185 % of control current

## COCc1ncn2c1CN(C)C(=O)c1cc(Cl)ccc1-2 [PWZ-029 (1)]
mice
  scopolamine-induced memory impairment: potently reversed
α1β3γ2 GABAA receptor; 0.1 μM
  modulation at the α1-subunit: little or no effect
α1β3γ2 GABAA receptor; oocytes, Sieghart et al.
  efficacy type at the α1 subunit: very weak agonist activity
α2β3γ2 GABAA/BzR [6]; listed as 1a
  Ki: > 300 nM
α2β3γ2 GABAA/BzR [6]; listed as 1c
  Ki: 180 nM
rats; 2 mg/kg
  recognition memory deficit induced by 0.3 mg/kg scopolamine, 1 h delay: successfully reversed the deficit in recognition memory
rats; 2, 5 and 10 mg/kg
  object recognition, 24 h delay: improved object recognition
α5β3γ2 GABAA/BzR
  Ki: 38.8 nM and 30 nM and 6 nM
α3β3γ2 GABAA/BzR [7]; listed as 1a
  Ki: > 300 nM
α3β3γ2 GABAA/BzR [7]; listed as 1c
  Ki: 328 nM
α6β3γ2 GABAA/BzR [8]
  Ki: > 300 nM
α5β3γ2 GABAA receptor
  efficacy type at the α5-subunit: negative allosteric modulator
  modulation at the α5-subunit: moderate negative modulation
AD rat model
  latency to reach the hidden platform (memory probe trials): significant decrease in the latency to reach the hidden platform
α3β3γ2 GABAA receptor; 0.1 μM
  modulation at the α3-subunit: little or no effect
α3β3γ2 GABAA receptor; oocytes, Sieghart et al.
  efficacy type at the α3 subunit: very weak agonist activity
α1β3γ2 GABAA/BzR [9]
  Ki: > 300 nM and 920 nM and 362 nM
α2β3γ2 GABAA/BzR [10]
  Ki: > 300 nM and 180 nM
Rhesus monkeys; i.v.
  ORD “difficult” trials: increasing dose-dependent curve for successful trials
  ORD “mixed” trials versus vehicle: no significant results
Rhesus monkeys; scopolamine 0.01 mg/kg
  ORD, cholinergic deficits induced by scopolamine: dose-dependently reverse the cholinergic deficits
α1β3γ2 GABAA/BzR [11]; listed as 1a
  Ki: > 300 nM
α1β3γ2 GABAA/BzR [11]; listed as 1c
  Ki: 362 nM
α6β3γ2 GABAA/BzR [12]
  Ki: > 300 nM
α2β3γ2 GABAA receptor; 0.1 μM
  modulation at the α2-subunit: little or no effect
α2β3γ2 GABAA receptor; oocytes, Sieghart et al.
  efficacy type at the α2 subunit: very weak agonist activity
α3β3γ2 GABAA/BzR [13]
  Ki: > 300 nM and 328 nM
